# Assay results: US12730111B2, “Systems, methods, and compositions to identify new protein targets of a chemical compound or its derivatives” (priority 2019, dated 2026)
# What was measured:
# [1] = tested on: protein asymmetric dimethylarginine (ADMA) in HeLa cells; assay: Protein ADMA levels in cultured HeLa cells (immunoblot); type: cell-based; details: for levels of protein ADMA in cell culture: 50 μM, short-term treatment
# Procedure: Each group contained the same volume of DMSO and ethanol. After wash with TBS for three times, the cells were lysed with 900 μL RIPA lysis buffer and centrifuged to pellet down the debris. The supernatant was then transferred to a new tube and mixed with equal volume of 2×SDS sample buffer. Ten μL sample solution was for electrophoresis and immunoblotting. The signal of anti-GAPDH was used to adjust the amount of protein loading.
# Since Bay 11-7082 inhibited PRMT1 activity in an in vitro assay, we then tested the inhibitory activity of this compound in cultured HeLa cells. The levels of ADMA are regulated by both methylation and demethylation. […] Some proteins of ADMA persisted several days in the absence of PRMT1. […] We also used histone H4R3 asymmetric dimethylation antibody as one kind of pan ADMA antibody (right panel, Supplementary FIG. 5). However, we noticed that the ADMA signals of one or two proteins increased in this experiment possibly due to the compensation activity caused by other PRMT family proteins (39) or disturbance of cell cycle progression affected by other target proteins of Bay 11-7082 (40). It is of interest to note that phenylsulfonyl structure present in Bay 11-7082 is also found in a PRMT1 inhibitor, C-7280948 (41), indicating the Bay 11-7082 could be a good lead compound for developing PRMT1 inhibitors. […] We included another Bay 11-7082 analog, Bay 11-7085 for comparison (42, 43).
# [2] = target: T1, Recombinant glutathione reductase (Homo sapiens, UniProt P00390); assay: In vitro enzyme activity of glutathione reductase; type: biochemical
# T1 construct: purchased BioVision
# T1 sequence (P00390 44-522): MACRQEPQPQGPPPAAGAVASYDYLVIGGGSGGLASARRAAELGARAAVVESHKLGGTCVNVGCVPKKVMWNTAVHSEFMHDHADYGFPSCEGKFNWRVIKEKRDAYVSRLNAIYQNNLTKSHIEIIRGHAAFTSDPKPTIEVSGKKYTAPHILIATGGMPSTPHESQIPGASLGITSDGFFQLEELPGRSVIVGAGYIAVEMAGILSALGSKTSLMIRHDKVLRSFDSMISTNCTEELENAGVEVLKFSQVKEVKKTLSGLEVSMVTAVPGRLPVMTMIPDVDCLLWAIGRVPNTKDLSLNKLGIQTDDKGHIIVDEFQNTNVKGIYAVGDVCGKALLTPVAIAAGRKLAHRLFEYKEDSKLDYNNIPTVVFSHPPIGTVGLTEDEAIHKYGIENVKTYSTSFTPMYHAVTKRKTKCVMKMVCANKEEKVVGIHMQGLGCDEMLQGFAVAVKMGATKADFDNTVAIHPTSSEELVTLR
# Procedure: Recombinant glutathione reductase was first treated with NADPH and 10 or 50 μM PVS, PVSN or Bay 11-7082 for 1 h at room temperature. In the control group, recombinant glutathione reductase was treated with NADPH and the same volume of DMSO used in the treatment of drugs in the assay buffer. Following the addition of oxidized glutathione, the decrease in absorbance at A340 was monitored over 10 min. Results were presented as mean of three independent experiments plus and minus standard deviation.
# The assay was carried out according to the protocol provided by BioVision Inc. (Catalog number K761-200). Recombinant glutathione reductase was first treated with NADPH and 10 μM or 50 μM PVS, PVSN or Bay11-7082 for 30 min at room temperature. In the control group, recombinant glutathione reductase was treated with NADPH and the same volume of DMSO used in the treatment of drugs in the assay buffer. Following the addition of oxidized glutathione, the decrease in absorbance at A340 was monitored over 10 min.
# Based on the proteomic results, we first examined whether PVS, PVSN and Bay 11-7082 affected the activity of glutathione reductase (FIG. 5). All compounds were ineffective in inhibiting glutathione reductase at 10 μM. However, PVSN and Bay 11-7082 at 50 μM inhibited the activity of glutathione reductase by 61% and 74%, respectively. […]
# PTPs in HeLa cells = assay: Phosphotyrosine levels in HeLa cells (PTP inhibition, immunoblot); type: cell-based; details: 10 and 100 μM for 5 min
# Procedure: FIG. 4 describes use of anti-PVS in recognition of PVSN and Bay 11-7082 adducts.
# We next examined whether anti-PVS antiserum can be used in detection of target proteins probed by PVS analogs such as PVSN and Bay 11-7082. Treatment of PVSN and Bay 11-7082 at concentrations of 10 and 100 μM for 5 min increased the levels of phosphotyrosine modification in HeLa cells, especially Bay 11-7082 at 100 μM (FIG. 4) confirming their effects in PTP inhibition. PVSN-tagged proteins were abundantly recognized by anti-PVS antiserum (FIG. 5A), but only few Bay 11-7082-tagged proteins were detected by the anti-PVS antiserum (FIG. 5B). Therefore, anti-PVS antiserum can be readily used in the detection of proteins modified by PVS and PVSN.
# recombinant PRMT1 = target: T2, recombinant PRMT1 (Homo sapiens, UniProt Q99873); assay: In vitro PRMT1 activity assay (histone H4 methylation, immunoblot); type: biochemical; details: for concentration that caused significant inhibition of methylation of histone H4: recombinant PRMT1, histone H4, S-adenosylmethionine; for IC50: three-point curve fit (5, 10, 100 μM), an estimation, read-out: IC50 (PRMT1, histone H4 as substrate)
# T2 construct: purchased BPS Bioscience
# T2 sequence (Q99873 whole entry): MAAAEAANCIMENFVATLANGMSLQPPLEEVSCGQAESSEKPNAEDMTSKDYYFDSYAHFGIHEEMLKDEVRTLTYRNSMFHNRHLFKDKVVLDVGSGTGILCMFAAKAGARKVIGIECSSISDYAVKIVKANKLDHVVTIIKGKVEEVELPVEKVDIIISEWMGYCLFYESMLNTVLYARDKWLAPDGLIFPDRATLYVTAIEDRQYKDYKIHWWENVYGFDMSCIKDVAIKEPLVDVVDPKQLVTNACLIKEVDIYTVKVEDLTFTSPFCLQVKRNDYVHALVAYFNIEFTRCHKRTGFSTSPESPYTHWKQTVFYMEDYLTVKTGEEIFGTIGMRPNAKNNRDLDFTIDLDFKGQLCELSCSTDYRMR
# Source text: Three-point IC50 curves may provide an estimation, but certainly not an accurate calculation (data is not shown).
# [3] = tested on: PVS tagging of cysteine thiol groups of cellular proteins in HeLa cells; assay: Competition of PVS tagging in HeLa cells or lysate (anti-PVS immunoblot); type: cell-based
# Procedure: HeLa cells were treated with 10 μM to 1 mM PVS in PBS for 1 h or with 0.1-2 mM PVD in PBS for 30 min. In the case of PVS and PVD combined treatment, HeLa cells were pretreated with PVD for 30 min and then treated with PVS in PBS for 1 h.
# Based on the observations that PVS and PVSN were PTP covalent inhibitors (22), we attempted to develop an antiserum against PVS and use the antiserum in the identification of PVS-tagged proteins through immunoblotting and immunoprecipitation. First, we confirmed the inhibitory activity of PVS on PTPs and tested the efficacy of our antiserum against PVS. […] Higher concentrations of PVS elicited higher levels of PVS modification, but with the same pattern. […] Specificity of the anti-PVS was further tested by the combined treatment of ethyl vinyl sulfone (EVS) and PVS. HeLa cells were pretreated with 10 μM to 1 mM EVS in PBS for 30 min and then treated with 100 μM PVS in PBS for 1 h.
# Pervanadate is an irreversible PTP inhibitor by oxidizing the active-site cysteine thiol of PTPs (24). If both PVS and pervanadate target the same thiol group, pretreatment of pervanadate would hinder the tagging of PVS. […] Next, we tested the competition of BVT 948 and NSC 95397 on the tagging of PVS. BVT 948 (25) and NSC 95397 (26) are PTP and dual specificity phosphatase inhibitors, respectively. Treatment of both drugs elicited increased amounts of tyrosine phosphorylation, albeit with different sensitivity and pattern.
# HeLa cells were cultured to about 90% confluence on a 10-cm dish in DMEM with 10% FBS (5×10^6~1×10^7 cells). HeLa cells were lysed by repeated pipetting with 900 μL 2% Triton X-100 in 20 mM Tris-HCl, pH 8.0. The lysate was centrifuged at 12,000×g for 10 min and the supernatant was aliquoted (200 μL) and treated with PVS, PVSN, or Bay 11-7082 of various concentrations at room temperature for 5 to 60 min. The stocks of 1000×PVS, 1000×PVSN, and 1000× Bay 11-7082 were prepared in DMSO. The reaction was stopped by adding 1,4-dithioerythreitol to a final concentration of 10 mM. The reaction solution was then mixed with equal volume of 2× SDS sample buffer. Ten μL sample solution was used for SDS gel electrophoresis and immunoblotting. The signal of GAPDH was used to adjust the amount of protein loading.
# PC-9 cells = assay: Afatinib labeling of proteins in PC-9 cells (anti-afatinib immunoblot); details: 1 h
# Procedure: The control groups were treated with the same volume of DMSO.
# recombinant RRM1 or RRM2 = assay: Competition of afatinib labeling of recombinant RNR subunits; details: pretreatment 2.5 mM, then 10 μM afatinib
molecule,measurement,setting,value
O=C(Nc1ccc2c(O)cc(S(=O)(=O)O)cc2c1)Nc1ccc2c(O)cc(S(=O)(=O)O)cc2c1 [AMI-1],levels of protein ADMA in cell culture,[1],little effect
Cc1ccc(S(=O)(=O)/C=C/C#N)cc1 [Bay 11-7082],inhibited the activity of glutathione reductase by,[2]; at 50 μM,74%
same,levels of phosphotyrosine modification,PTPs in HeLa cells,increased
same,concentration that caused significant inhibition of methylation of histone H4,recombinant PRMT1,2.5 µM
same,IC50,recombinant PRMT1,10.7 µM
same,levels in ADMA of 25 and 35 kDa,[1]; 3 h,led to decline
"C=CS(=O)(=O)CC [EVS, ethyl vinyl sulfone]",PVS modification,"[3]; HeLa cells pretreated at 100 μM and 1 mM for 30 min, then 100 μM PVS 1 h",significantly attenuated
O=C1C(SCCO)=C(SCCO)C(=O)c2ccccc21 [NSC 95397],"blocking of PVS tagging, comparison",[3]; in vitro and in cellulo,blocked PVS tagging better than BVT 948
"C=CS(=O)(=O)c1ccccc1 [PVS, Phenyl vinyl sulfone]",concentration that caused significant inhibition of methylation of histone H4,recombinant PRMT1,10 µM
same,IC50,recombinant PRMT1,23.3 µM
same,levels of protein ADMA in cell culture,[1],did not change
"C=CS(=O)(=O)Oc1ccccc1 [PVSN, phenyl vinyl sulfonate]",inhibition at 50 µM,[2]; read-out: inhibited the activity of glutathione reductase by,61%
same,levels of phosphotyrosine modification,PTPs in HeLa cells,increased
same,concentration that caused significant inhibition of methylation of histone H4,recombinant PRMT1,5 µM
same,IC50,recombinant PRMT1,10.4 µM
same,levels of protein ADMA in cell culture,[1],decreased the levels of protein ADMA slightly
CN(C)C/C=C/C(=O)Nc1cc2c(Nc3ccc(F)c(Cl)c3)ncnc2cc1O[C@H]1CCOC1 [afatinib],concentration at which labeling signals were readily observed,PC-9 cells,1 µM
Nc1ccn([C@@H]2O[C@H](CO)[C@@H](O)C2(F)F)c(=O)n1 [gemcitabine],afatinib labeling,recombinant RRM1 or RRM2,almost completely blocked
pervanadate,tagging of PVS,"[3]; HeLa cell lysate, 1 mM together with 100 μM PVS",almost completely blocked
same,tagging of PVS,[3]; HeLa cells pretreated with 1 mM for 30 min,completely blocked
